Measured values: ChEMBL document CHEMBL1151601, “Probing the binding site of the penicillin side-chain based on the tipper-strominger hypothesis” (1993)
Values after ≈ are worked out from the molar mass of the structure shown.

How the values were obtained:
[1] = tested on: Escherichia coli; experiment: Tested for minimum inhibitory concentration against Escherichia coli DC2; assay type: functional
[2] = tested on: Escherichia coli; experiment: Tested for minimum inhibitory concentration against Escherichia coli DCO; assay type: functional
[3] = tested on: Escherichia coli; experiment: Concentration required for 90 percent inhibition of [14C]- pen-G binding to Escherichia coli DCO PBP1a 90 KDa
[4] = tested on: Escherichia coli; experiment: Concentration required for 90 percent inhibition of [14C]- pen-G binding to Escherichia coli DCO PBP1b 90 KDa
[5] = tested on: Escherichia coli; experiment: Concentration required for 90 percent inhibition of [14C]- pen-G binding to Escherichia coli DCO PBP2 66 KDa
[6] = tested on: Escherichia coli; experiment: Concentration required for 90 percent inhibition of [14C]- pen-G binding to Escherichia coli DCO PBP3 60 KDa
[7] = tested on: Escherichia coli; experiment: Concentration required for 90 percent inhibition of [14C]- pen-G binding to Escherichia coli DCO PBP4 49 KDa
[8] = tested on: Escherichia coli; experiment: Concentration required for 90 percent inhibition of [14C]- pen-G binding to Escherichia coli DCO PBP5/6 40 KDa
[9] = tested on: Staphylococcus aureus; experiment: Concentration required for 90 percent inhibition of [14C]- pen-G binding to Staphylococcus aureus ATCC 25293 PBP2 80 KDa
[10] = tested on: Staphylococcus aureus; experiment: Concentration required for 90 percent inhibition of [14C]- pen-G binding to Staphylococcus aureus ATCC 25293 PBP3 75 KDa
[11] = tested on: Staphylococcus aureus; experiment: Concentration required for 90 percent inhibition of [14C]- pen-G binding to Staphylococcus aureus ATCC 25293 PBP4 41 KDa
[12] = tested on: Staphylococcus aureus; experiment: Tested for minimum inhibitory concentration against Staphylococcus aureus ATCC 25293; assay type: functional
[13] = tested on: Staphylococcus aureus; experiment: Concentration required for 90 percent inhibition of [14C]- pen-G binding to Staphylococcus aureus ATCC 25293 PBP1 87 KDa
[14] = tested on: Escherichia coli; experiment: Concentration required for 90 percent inhibition of [14C]- pen-G binding to Escherichia coli Penicillin-binding protein (DCO PBP1a 90 KDa)
[15] = tested on: Escherichia coli; experiment: Concentration required for 90 percent inhibition of [14C]- pen-G binding to Escherichia coli Penicillin-binding protein (DCO PBP1b 90 KDa)
[16] = tested on: Escherichia coli; experiment: Concentration required for 90 percent inhibition of [14C]- pen-G binding to Escherichia coli Penicillin-binding protein (DCO PBP2 66 KDa)
[17] = tested on: Escherichia coli; experiment: Concentration required for 90 percent inhibition of [14C]- pen-G binding to Escherichia coli Penicillin-binding protein (DCO PBP3 60 KDa)
[18] = tested on: Escherichia coli; experiment: Concentration required for 90 percent inhibition of [14C]- pen-G binding to Escherichia coli Penicillin-binding protein (DCO PBP4 49 KDa)
[19] = tested on: Escherichia coli; experiment: Concentration required for 90 percent inhibition of [14C]- pen-G binding to Escherichia coli Penicillin-binding protein (DCO PBP5/6 40 KDa)
[20] = tested on: Staphylococcus aureus; experiment: Concentration required for 90 percent inhibition of [14C]- pen-G binding to Staphylococcus aureus Penicillin-binding protein (ATCC 25293 PBP1 87 KDa)
[21] = tested on: Staphylococcus aureus; experiment: Concentration required for 90 percent inhibition of [14C]- pen-G binding to Staphylococcus aureus Penicillin-binding protein (ATCC 25293 PBP2 80 KDa)

Structure (SMILES) | MIC [1] [µg/mL] | MIC [2] [µg/mL] | Concentration [3] [µg/mL] | Concentration [4] [µg/mL] | Concentration [5] [µg/mL] | Concentration [6] [µg/mL] | Concentration [7] [µg/mL] | Concentration [8] [µg/mL] | Concentration [9] [µg/mL] | Concentration [10] [µg/mL] | Concentration [11] [µg/mL] | MIC [12] [µg/mL] | Concentration [13] [µg/mL] | other results
CC1(C)S[C@@H]2[C@H](NC(=O)Cc3ccccc3)C(=O)N2[C@H]1C(=O)O [PENICILLIN G] | 12 (≈ 35.9 µM) | 50 (≈ 150 µM) | > 100 | 10 | 10 | 2 | 2 | > 100 | 0.1 | 0.1 | 10 | < 0.05 | 0.1 | 
CC(=O)NCCCC[C@H](C(=O)N[C@@H]1C(=O)N2[C@@H]1SC(C)(C)[C@@H]2C(=O)O)c1ccccc1 | > 100 | > 100 | 30 | 100 | 30 | 30 | 30 | > 100 | 100 | > 100 |  | 20 (≈ 44.7 µM) | 30 | 
CC1(C)SC2C(NC(=O)Cc3ccccc3)C(=O)N2[C@H]1C(=O)O (stereo partly drawn) |  |  |  |  |  |  |  |  |  |  | > 100 | > 20 |  | Concentration [14]: > 100 µg/mL; Concentration [15]: > 100 µg/mL; Concentration [16]: > 100 µg/mL; Concentration [17]: 100 µg/mL; Concentration [18]: 100 µg/mL; Concentration [19]: > 100 µg/mL; Concentration [20]: 2 µg/mL; Concentration [21]: > 100 µg/mL
CC1(C)S[C@@H]2[C@H](NC(=O)[C@@H](CCCCN)c3ccccc3)C(=O)N2[C@H]1C(=O)O | 5 (≈ 12.3 µM) | 100 (≈ 247 µM) | 10 | 100 | 30 | 100 | 30 | > 100 | 30 | > 100 |  | 5 (≈ 12.3 µM) | 30 | 
CC1(C)S[C@@H]2[C@H](NC(=O)[C@H](N)c3ccccc3)C(=O)N2[C@H]1C(=O)O [AMPICILLIN] | 0.4 (≈ 1.14 µM) |  | 2 | 10 | 0.5 | 2 | 0.1 | 100 | 2 | 0.1 | > 100 | 1.6 (≈ 4.58 µM) | 0.1 | 
CC1(C)S[C@@H]2[C@H](NC(=O)[C@H](CCCCN)c3ccccc3)C(=O)N2[C@H]1C(=O)O | > 100 | > 100 | 30 | 100 | 30 | 10 | 10 | > 100 | 100 | > 100 |  | > 100 | 100 | 
CC(=O)NCCCC[C@@H](C(=O)N[C@@H]1C(=O)N2[C@@H]1SC(C)(C)[C@@H]2C(=O)O)c1ccccc1 | > 20 | > 100 | > 100 | > 100 | > 100 | 100 | 100 | > 100 | > 100 | > 100 |  | > 20 | 100 | 
